Assay results: patent US10166271B2, “Methods for promoting hair growth” (THE REGENTS OF THE UNIVERSITY OF CALIFORNIA, priority 2006, dated 2019)

How the values were obtained:
young CRF-OE mice = conditions: young CRF-OE mice; over a two-month period
Protocol: Each subcutaneous injection is given in a single puncture located along or about the midline of the back. Age-matched CRF-OE mice similarly injected with 0.1 ml vehicle alone are used as negative controls. Astressin B fragments are as described in Example 8. Alternatively, topical astressin B can be applied to the mouse's back, for example 0.05 mg, 0.5 mg, 5 mg, 50 mg, or 500 mg of an astressin B fragment once daily for at least five consecutive days
Hair growth (or hair loss) is assessed using the hair growth scale described in Example 1. The general conditions of treated and control mice, such as weight, back skin thickness, hair luster, skin wounds and indurations, are noted.

CRF-OE mice = assay type: in vivo; conditions: for Treated mice that died / did not survive / Hair growth: adult female CRF-OE mice; for Treated mice that died / did not survive: groups of five, minoxidil: a few days after the first injection, NBI 27914: within four weeks following the final injection; for Hair growth: 2 and 4 weeks (minoxidil) or four weeks (NBI 27914, surviving mouse) after the final injection
Text: The NBI 27914 administration regimen was as previously described by Martinez et al. (J. Pharmacol. Exp. Ther., 301:611-617, 2002).

[1] = system: male patients between 18 and 41 years of age; post-menopausal women; conditions: cited from earlier work
[2] = system: male and female androgenetic patients; conditions: cited from earlier work
[3] = oral 1 mg/day for 2 years, male patients 18-41 years

| Structure (SMILES) | Loss of hair compared with astressin B-treated mice (young CRF-OE mice) | Treated mice that died / did not survive (CRF-OE mice) | Hair growth (CRF-OE mice) | Side effects ([1]; human, in vivo) | Cases in which further hair loss was prevented [1, 3] | Cases with visible hair growth [1, 3] | Efficacy of similar treatment regimen ([1]; post-menopausal women) | Side effects ([2]; human, in vivo) | Patients with fine hair growth (fraction) ([2]; two percent topical) | Patients with no hair growth (fraction) ([2]; two percent topical) | Patients with visible hair growth (fraction) ([2]; two percent topical) | Treated mice with induced patches of pigmentation (CRF-OE mice; sc 1% in 0.1 ml once per day x 10 days, by two weeks after the final injection, still-living mice) |
| --- | --- | --- | --- | --- | --- | --- | --- | --- | --- | --- | --- | --- |
| CCCN(CC1CC1)c1nc(C)nc(Nc2c(Cl)cc(Cl)cc2Cl)c1Cl [NBI 27914] | substantially more loss of hair | 4 out of 5 | small areas of patchy hair growth | – | – | – | – | – | – | – | – | – |
| CC(C)(C)NC(=O)[C@H]1CC[C@H]2[C@@H]3CC[C@H]4NC(=O)C=C[C@]4(C)[C@H]3CC[C@]12C [finasteride] | – | – | – | lack of libido, lack of potency, and mild reduction in semen | 83% | 66% | ineffective | – | – | – | – | – |
| Nc1cc(N2CCCCC2)nc(N)[n+]1[O-] [minoxidil] | substantially more loss of hair | one treated mouse died | Moderate hair growth in the pigmented patches | – | – | – | – | scalp irritation and increased facial hair | approximately ⅓ | approximately ⅓ | approximately ⅓ | 3 of the 4 |
